Where two headings read alike, the source gives them in different places.
How the values were obtained:
[1] = tested on: luciferase-expressing P. berghei liver stage parasites in HepG2 cells; test: Inhibition of liver-stage development assay (ILSDA), Method 2 (WRAIR, 96-well); format: cell-based, Plasmodium berghei; conditions: for Max Resp (signal direction of the dose response): Decrease = decreasing P. berghei viability with dose, Increase = increasing signal, Inactive = no dose response; for Activity direction (Decrease / Inactive): P. berghei liver stage
[2] = tested on: Plasmodium falciparum Dd2 asexual blood stage parasites; test: microbe, parasite or virus in culture; set-up: species or system Plasmodium falciparum Dd2 in human erythrocytes; single determination (one 11-point concentration-response curve); conditions: Plasmodium falciparum, DD2, Erythrocyte, 72 h; read-out: AC50
[3] = in vitro; conditions: human, hepg2-a16-cd81egfp cells
[4] = Plasmodium berghei, HepG2, Method 2, Hill fit, 50% of maximum activity response, read-out: AC50
[5] = Plasmodium berghei, HepG2, Method 2, log10 of molar AC50 from Hill fit, read-out: Log AC50 (converted)
[6] = Plasmodium berghei, HepG2, P. berghei liver stage, Method 2, dose response, read-out: AC50
[7] = Plasmodium berghei, HepG2, P. berghei liver stage, Method 2, dose response, read-out: Log AC50 (converted)

## Cc1ccc(NC2=C(c3ccc(C(F)(F)F)cc3)C(=O)c3ccccc32)cc1F [NCGC00107266]
[1]; Method 2
  Max Resp (signal direction of the dose response): Decrease
[1]; [4]
  AC50: 112 nM
[1]; [5]
  AC50: 112 nM

## CC(=O)Nc1ccc2c(c1)[S+](=O)([O-])N=C(CC(C)C)N2CC(C)C [NCGC00473311-01]
[1]; Method 2, dose response
  Activity direction (Decrease / Inactive): Inactive

## Clc1cnccc1CN1CC(CNc2ccccc2)C2(C1)CN(c1ccccc1)C2 (centres unmarked) [NCGC00416018-01]
[1]; Method 2, dose response
  Activity direction (Decrease / Inactive): Inactive
[2]
  AC50: 13700 nM

## c1ccc(NCC2CN(Cc3ccccn3)CC23CN(c2ccccc2)C3)cc1 (centres unmarked) [NCGC00415982-01]
[1]; Method 2, dose response
  Activity direction (Decrease / Inactive): Inactive

## O=[S+]([O-])(NCC1CN(Cc2ccc(O)cc2)CC12CN(c1ccccc1)C2)c1ccccc1 (centres unmarked) [NCGC00415939-01]
[1]; Method 2, dose response
  Activity direction (Decrease / Inactive): Inactive
[2]
  AC50: 6680 nM

## CCCN1C(CC(C)C)=N[S+](=O)([O-])c2cc(NC(=O)C(C)C)ccc21 [NCGC00473220-01]
[1]; Method 2, dose response
  Activity direction (Decrease / Inactive): Decrease
[1]; [6]
  AC50: 1120 nM
[1]; [7]
  AC50: 1120 nM

## O=C(Nc1ncccc1O)c1ccc(S(=O)(=O)Nc2ccccc2)cc1 [MLS001099437-01]
[1]; Method 2
  Max Resp (signal direction of the dose response): Inactive

## Cc1ccc(C)c(NC2=C(c3ccc(C(F)(F)F)cc3)C(=O)c3ccccc32)c1 [NCGC00107302]
[1]; Method 2
  Max Resp (signal direction of the dose response): Decrease
[1]; [4]
  AC50: 398 nM
[1]; [5]
  AC50: 398 nM

## Cc1cccc(N2CCN(c3nc4ccccc4c4nnc(C)n34)CC2)c1C [NCGC00107423]
[1]; Method 2
  Max Resp (signal direction of the dose response): Inactive

## c1ccc(OCC2CN(Cc3ccc4[nH]ccc4c3)CC23CN(c2ccccc2)C3)cc1 (centres unmarked) [NCGC00415812-01]
[1]; Method 2, dose response
  Activity direction (Decrease / Inactive): Inactive

## CCC(C)C1=N[S+](=O)([O-])c2cc(NC(=O)c3ccco3)ccc2N1c1ccccc1 (centres unmarked) [NCGC00473608-01]
[1]; Method 2, dose response
  Activity direction (Decrease / Inactive): Decrease
[1]; [6]
  AC50: 3980 nM
[1]; [7]
  AC50: 3980 nM

## O=C(NCC1CN(C(=O)Cc2cccc(OC(F)(F)F)c2)CC12CN(c1ccccc1)C2)c1ccccc1 (centres unmarked) [NCGC00415900-01]
[1]; Method 2, dose response
  Activity direction (Decrease / Inactive): Inactive

## CC(=O)Nc1ccc2c(c1)[S+](=O)([O-])N=C(CC(C)C)N2c1ccccc1 [NCGC00475154-01]
[1]; Method 2, dose response
  Activity direction (Decrease / Inactive): Inactive

## COc1ccc(NC2=C(c3ccc(C(F)(F)F)cc3)C(=O)c3ccccc32)cc1 [NCGC00107310]
[1]; Method 2
  Max Resp (signal direction of the dose response): Decrease
[1]; [4]
  AC50: 282 nM
[1]; [5]
  AC50: 282 nM

## O=C1C(c2ccc(C(F)(F)F)cc2)=C(Nc2ccc(Cl)cc2)c2ccccc21 [NCGC00107304]
[1]; Method 2
  Max Resp (signal direction of the dose response): Inactive

## N#Cc1cccc(CN2CC(CNc3ccccc3)C3(C2)CN(c2ccccc2)C3)c1 (centres unmarked) [NCGC00415808-01]
[1]; Method 2, dose response
  Activity direction (Decrease / Inactive): Decrease
[1]; [6]
  AC50: 2240 nM
[1]; [7]
  AC50: 2240 nM

## N#C/C(=C\c1ccc(Sc2ccc(Cl)cc2)o1)c1nc2ccccc2[nH]1 [MLS000579372-01]
[1]; Method 2
  Max Resp (signal direction of the dose response): Decrease
[1]; [4]
  AC50: 501 nM
[1]; [5]
  AC50: 501 nM
[2]
  AC50: 2990 nM

## CC1CCc2cc(F)ccc2N1C(=O)CSc1nnc2c(n1)[nH]c1ccccc12 (centres unmarked) [MLS000557140-01]
[1]; Method 2
  Max Resp (signal direction of the dose response): Decrease
[1]; [4]
  AC50: 5620 nM
[1]; [5]
  AC50: 5620 nM
[2]
  AC50: 7500 nM

## O=C(O)c1cccc(CN2CC(CNC(=O)c3ccccc3)C3(C2)CN(c2ccccc2)C3)c1 (centres unmarked) [NCGC00415857-01]
[1]; Method 2, dose response
  Activity direction (Decrease / Inactive): Decrease
[1]; [6]
  AC50: 891 nM
[1]; [7]
  AC50: 891 nM

## CC(C)CC1=N[S+](=O)([O-])c2cc(NC(=O)C3CC3)ccc2N1c1ccccc1 [NCGC00475156-01]
[1]; Method 2, dose response
  Activity direction (Decrease / Inactive): Decrease
[1]; [6]
  AC50: 3160 nM
[1]; [7]
  AC50: 3160 nM

## Cc1cccc(N(C)c2nc3ccccc3c3nnc(C)n23)c1 [NCGC00126108]
[1]; Method 2
  Max Resp (signal direction of the dose response): Decrease
[1]; Method 2, Hill fit, 50% of maximum activity response, read-out: AC50
  AC50: 200 nM
[1]; Method 2, log10 of molar AC50 from Hill fit
  Log AC50 (M): -6.700 M

## Cc1ccc(NC2=C(c3ccc(C(F)(F)F)cc3)C(=O)c3ccccc32)cc1C [NCGC00107300]
[1]; Method 2
  Max Resp (signal direction of the dose response): Decrease
[1]; [4]
  AC50: 398 nM
[1]; [5]
  AC50: 398 nM

## CCC1=N[S+](=O)([O-])c2cc(NC(=O)C3CC3)ccc2N1CC(C)C [NCGC00475158-01]
[1]; Method 2, dose response
  Activity direction (Decrease / Inactive): Inactive

## OC(CNC1CCCc2ccccc21)COc1c(Cl)cccc1Cl (centres unmarked) [MLS000334339]
[3]; % viability
  viability at 3 µM: 100%

## Cc1cc(OC(C)C(=O)NCCc2c[nH]c3ccccc23)c2c(C)cc(=O)oc2c1 (centres unmarked) [MLS001158613]
[3]; % viability
  viability at 3 µM: 92.7%

## CNc1ccc2oc(C[C@@H]3OC4(CC[C@@H]3C)O[C@H]([C@@H](C)C(=O)c3ccc[nH]3)[C@H](C)C[C@H]4C)nc2c1C(=O)O (some centres unmarked) [NCGC00161647]
[3]; % viability
  viability at 3 µM: 12.5%

## CC1CC(C)CN(C(=O)c2ccc3ccccc3c2)C1 (centres unmarked) [MLS001161774]
[3]; % viability
  viability at 3 µM: 90.9%

## COc1ccc(NC(=O)C(c2ccc(Cl)cc2)C(C)C)cn1 (centres unmarked) [MLS001149289]
[3]; % viability
  viability at 3 µM: 88.5%

## CCOC(=O)C1CCN(C(=O)c2cc(C(C)(C)C)nn2Cc2ccccc2)CC1 [MLS000860456]
[3]; % viability
  viability at 3 µM: 90.8%

## CCc1c(C)c(C#N)c2nc3ccccc3n2c1NCC1CCCO1 (centres unmarked) [MLS000556827]
[3]; % viability
  viability at 3 µM: 99.5%

## COc1ccc2c(c1)C=C([C@@H]1C[C@H]3CN(c4ccccc4)C(=O)[C@]34CCCN14)CO2 [MLS000734809]
[3]; % viability
  viability at 3 µM: 95.7%

## O=c1c2ccccc2nc(N/N=C/c2c(O)ccc3ccccc23)n1O [MLS000551780]
[3]; % viability
  viability at 3 µM: 34.1%

## COc1cccc(OCCn2cc(C(=O)c3ccco3)c3ccccc32)c1 [MLS000050800]
[3]
  viability at 3 µM: 106%

## COc1ccccc1-c1cc(C(=O)N2CCN(S(=O)(=O)c3ccc(C)cc3)CC2)[nH]n1 [MLS000924750]
[3]; % viability
  viability at 3 µM: 96.6%

## CCOC(=O)c1c(CN2CCN(c3ccccc3)CC2)oc2cc(Br)c(O)cc12 [MLS001198242]
[3]; % viability
  viability at 3 µM: 90.6%

## O=C(Nc1ccc(N2CCN(c3ncccc3C(F)(F)F)CC2)nc1)c1cccs1 [MLS000862045]
[3]; % viability
  viability at 3 µM: 92%

## Cc1ccnc2nc(C(=O)Nc3cc(Cl)ccc3N3CCOCC3)nn12 [MLS000567033]
[3]; % viability
  viability at 3 µM: 98.5%

## COc1ccc(OC)c(-n2c(S)nnc2-c2ccc(O)cc2O)c1 [MLS000766628]
[3]; % viability
  viability at 3 µM: 104%

## CC(C)CCN1CC(CN[S+](=O)([O-])c2ccccc2)C2(C1)CN(c1ccccc1)C2 (centres unmarked) [NCGC00415920-01]
[1]; Method 2, dose response
  Activity direction (Decrease / Inactive): Decrease
[1]; [6]
  AC50: 2820 nM
[1]; [7]
  AC50: 2820 nM

## O=C1C(=O)c2ncccc2-c2cccnc21 [NCGC00160369]
[3]; % viability
  viability at 3 µM: 24.2%

## N=c1ccn(CC(=O)c2ccc(-c3ccccc3)cc2)cc1 [MLS000698051]
[3]; % viability
  viability at 3 µM: 53.4%

## CC(C)C1=N[S+](=O)([O-])c2cc(NC(=O)c3ccco3)ccc2N1c1ccccc1 [NCGC00473412-01]
[1]; Method 2, dose response
  Activity direction (Decrease / Inactive): Inactive

## Cc1ccc(C)c2sc(N3CCN(C(=O)c4ccc([N+](=O)[O-])o4)CC3)nc12 [MLS001234268]
[3]; % viability
  viability at 3 µM: 94.7%

## C=C(C)COc1ccc(-c2n[nH]cc2-c2ccc(OC)c(OC)c2)c(O)c1 [MLS000084580]
[3]; % viability
  viability at 3 µM: 42.4%

## Cc1ccc(CNCc2cc3c(C(C)(C)C)nn(-c4ccccc4)c3[nH]c2=O)cc1 [MLS000067257]
[3]; % viability
  viability at 3 µM: 106%

## Cc1cc(C)n(-c2nc(NC(C)C)nc(NC(C)C)n2)n1 [MLS000068521]
[3]; % viability
  viability at 3 µM: 105%

## CN(C)Cc1c(O)ccc2oc(Cc3ccccc3)cc12 [MLS000039159]
[3]; % viability
  viability at 3 µM: 89.6%

## O=c1[nH]c(N2CCOCC2)nc2c1CCN(Cc1cc(Cl)ccc1F)CC2 [NCGC00440651]
[1]; Method 2, dose response
  Activity direction (Decrease / Inactive): Decrease
[1]; [6]
  AC50: 200 nM
[1]; [7]
  AC50: 200 nM

## c1ccc2sc(Sc3ncnc4sccc34)nc2c1 [MLS000334432]
[3]; % viability
  viability at 3 µM: 96.9%

## CCOc1ccc(C(=O)Nc2ccc(-c3nc4ccccc4[nH]3)cc2)cc1[N+](=O)[O-] [MLS000577721]
[3]; % viability
  viability at 3 µM: 101%

## Cc1cc(O)c(-c2cc(C(=O)Nc3ccc(S(=O)(=O)N4CCOCC4)cc3)[nH]n2)cc1C [MLS000042703]
[3]; % viability
  viability at 3 µM: 93.1%

## CC(=O)N1CCN(C(=O)c2ccc3c(c2)NC(C)(COc2ccc4[nH]ccc4c2)CO3)CC1 (centres unmarked) [NCGC00416302]
[1]; Method 2, dose response
  Activity direction (Decrease / Inactive): Inactive

## O=C(/C(=C/c1ccc(Cl)cc1)c1nc2ccccc2[nH]1)c1cccs1 [MLS000565128]
[3]; % viability
  viability at 3 µM: 79.2%

## Oc1c(Cl)cc(Cl)cc1CN1CCN(Cc2ccccc2)CC1 [MLS000106505]
[3]
  viability at 3 µM: 92%
